Laboratory results taken from patent US20090298857A1, “Treatment of Neurodegenerative Diseases Through Inhibition of HSP90” (SLOAN-KETTERING INSTITUTE FOR CANCER RESEARCH, priority 2006, published 2009).
“And” between values parts separate entries of the source, which are not always exact repeats. Identical values can stand only once.

Columns and labels:
[1] = test system: mTau expression and phosphorylation, subcortical brain region; test: 30 day Hsp90 inhibitor treatment of JNPL3 mice; type: in vivo; settings: 30 days
Procedure: To investigate whether modulation of mTau could be sustained over a longer Hsp90 inhibitor-treatment period, without being toxic to mice. JNPL3 mice were subjected for 30 days to these agents. Female JNPL3 mice 6.5 months of age (n=10) were administered i.p. vehicle (n=5) or one of the Hsp90 inhibitors, PU24FC1 (200 mg/kg) or PU-DZ8 (75 mg/kg) (n = 5), on a daily, five-times per week schedule and animals were sacrificed at 8 h following the last administered dose of inhibitor. […] Furthermore, no visible internal organ damage was detected at sacrifice upon gross inspection. Both S1 and P3 fractions extracted from the subcortical brain region of these mice were analyzed for mTau expression and phosphorylation.

[2] = Assessment of PU-DZ8 brain levels by HPLC/MS/MS; type: in vivo, mice; settings: 75 mg/kg i.p.
Procedure: Assessment of PU-DZ8 brain levels. Concentrations of compound were determined and quantitated by a MRM mode using a tandem high-performance liquid chromatography-mass/mass spectrometry (HPLC/MS/MS). A weighed piece of brain was rinsed with saline isotonic solution, dried with gauze and then homogenized in mobile phase (acetonitrile (ACN)/0.1% formic acid=1.2/2.8, v/v). Haloperidol was added as internal standard. PU-DZ8 was extracted in methylene chloride, the organic layer was separated, speedily dried under vacuum and reconstituted in the mobile phase. Compound analysis was performed in the API 4000™ LC/MS/MS (Applied Biosystems) which was coupled with a Shimadzu LC system and a 96-well plate autosampler. A Gemini C18 column (5 μ particle size, 50×4.6 mm I.D.) was used for the LC separation. The analyte was eluted under an isocratic condition for 4 min at a flow rate of 0.4 mL/min.
One dose of PU-DZ8 (75 mg/kg) was administered intraperitoneally (i.p.) to female mice of 2.5-4 months in age (n=32) and animals were sacrificed in the interval of 0 to 36 h. Both aggregate-free Tau (S1) and insoluble Tau (P3) fractions were prepared from the subcortical and cortical regions of these mice. PU-DZ8 levels in the brain reached 0.35 μg/g (˜700 nM) at 4 h, and the pharmacologically relevant dose was retained for at least 12 h post-administration (0.2 μg/g, ˜390 nM).

P-glycoprotein = P-glycoprotein (Homo sapiens, UniProt P08183); test: P-glycoprotein substrate status; type: in vitro ADME
Description: Another characteristic which is indicative of the ability to cross the blood brain barrier is protein binding. […] It is not sufficient for a potential neurotherapeutic agent to move across the BBB—it also has to stay in the brain long enough to exert its desired action. This means that it also has to avoid being a substrate for a variety of transport proteins that work to extrude compounds from the brain.

Sequence of P-glycoprotein (P08183 whole entry): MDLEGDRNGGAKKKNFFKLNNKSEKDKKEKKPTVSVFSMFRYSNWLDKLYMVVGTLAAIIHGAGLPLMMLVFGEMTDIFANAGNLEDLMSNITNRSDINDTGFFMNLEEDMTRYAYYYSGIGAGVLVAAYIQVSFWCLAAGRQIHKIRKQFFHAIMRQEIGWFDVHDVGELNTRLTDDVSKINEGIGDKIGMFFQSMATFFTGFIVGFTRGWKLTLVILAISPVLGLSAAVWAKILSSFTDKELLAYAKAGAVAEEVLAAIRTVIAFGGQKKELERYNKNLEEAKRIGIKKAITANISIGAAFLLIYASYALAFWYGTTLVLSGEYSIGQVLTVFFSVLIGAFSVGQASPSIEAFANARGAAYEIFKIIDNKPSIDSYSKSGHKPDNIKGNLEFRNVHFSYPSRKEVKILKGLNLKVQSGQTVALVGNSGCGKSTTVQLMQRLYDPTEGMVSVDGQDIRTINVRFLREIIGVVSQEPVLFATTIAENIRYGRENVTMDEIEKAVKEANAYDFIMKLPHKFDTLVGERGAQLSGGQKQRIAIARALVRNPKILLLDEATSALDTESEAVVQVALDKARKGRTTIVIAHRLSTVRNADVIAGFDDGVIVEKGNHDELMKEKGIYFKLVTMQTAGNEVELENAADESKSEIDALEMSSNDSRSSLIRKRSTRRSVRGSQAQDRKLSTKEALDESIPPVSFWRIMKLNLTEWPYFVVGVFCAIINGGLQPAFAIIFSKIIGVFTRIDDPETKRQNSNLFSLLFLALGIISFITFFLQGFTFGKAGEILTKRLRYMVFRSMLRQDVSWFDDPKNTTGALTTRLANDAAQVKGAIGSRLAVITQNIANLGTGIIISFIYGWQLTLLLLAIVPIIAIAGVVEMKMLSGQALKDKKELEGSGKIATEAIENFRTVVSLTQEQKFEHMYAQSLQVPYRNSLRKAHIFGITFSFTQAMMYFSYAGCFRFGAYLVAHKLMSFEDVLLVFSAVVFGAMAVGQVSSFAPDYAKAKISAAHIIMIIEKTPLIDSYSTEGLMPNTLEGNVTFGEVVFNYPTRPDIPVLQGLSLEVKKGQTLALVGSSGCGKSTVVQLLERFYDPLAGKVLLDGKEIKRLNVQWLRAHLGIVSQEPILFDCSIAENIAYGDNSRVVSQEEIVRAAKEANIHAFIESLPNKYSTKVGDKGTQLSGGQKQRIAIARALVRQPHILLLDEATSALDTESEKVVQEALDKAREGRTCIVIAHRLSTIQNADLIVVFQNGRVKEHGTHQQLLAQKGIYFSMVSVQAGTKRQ

CC(C)NCCCn1c(Cc2cc3c(cc2I)OCO3)nc2c(N)nc(F)nc21 [PU-DZ8]
p35 in S1 fraction [1]: p35 reduction | toxicity (animal weight, fur appearance, appetite, posture) ([1]; daily five-times per week i.p., PU24FC1 200 mg/kg, PU-DZ8 75 mg/kg): No toxicity was observed | Tau expression and phosphorylation in S1 and P3 fractions ([1]; hTau P<0.0001, T231 P=0.0034 (FIG. 15)): significant reduction | level in the brain ([2]; 4 h): 0.35 μg/g and ~700 nM | level in the brain ([2]; 12 h post-administration): 0.2 μg/g and ~390 nM | P-gp substrate (P-glycoprotein): not a substrate of P-pg
